Earlier results in US10004803B2, “Low, immune enhancing, dose mtor inhibitors and uses thereof” (Novartis AG, priority 2013, dated 2018).

Key:
[1] = target: mTOR (Homo sapiens, UniProt P42345); conditions: low concentration; Serra et al., 2008; cited from earlier work
[2] = test system: PI3K/mTOR; conditions: relatively higher concentrations; Serra et al., 2008; cited from earlier work

Cn1c(=O)n(-c2ccc(C(C)(C)C#N)cc2)c2c3cc(-c4cnc5ccccc5c4)ccc3ncc21 [BEZ235, 2-methyl-2-[4-(3-methyl-2-oxo-8-quinolin-3-yl-2,3-dihydro-imidazo[4,5-c]quinolin-1-yl)-phenyl]-propionitrile]
concentration at which mTOR inhibition predominates [1]: less than 100 nmol/L
concentration giving dual PI3K/mTOR inhibition [2]: approximately 500 nmol/L
